Values quoted from earlier work, collected in patent US20020160058A1, “Antialopecia agent” (priority 1996, published 2002).

Test system: alopecia induced by adriamycin
Settings: reported

## tocopherol
Oral administration
  effect on alopecia induced by adriamycin: preventive effect
  effect on alopecia induced by the combined use of adriamycin with other anticancer agents: no effect
